Experimental data as given in paper PMC5207065, “The Ribosome Restrains Molten Globule Formation in Stalled Nascent Flavodoxin” (The Journal of Biological Chemistry, 2016).

Assays:
Experiment in all cases: FMN fluorescence quenching on binding to apoprotein, time trace
[1] = target: T1, F44YRNC (ribosome-nascent chain complex of F44Y flavodoxin) (Azotobacter vinelandii, UniProt P00324, F45Y/C70A); conditions: buffer I (HEPES-KOH, magnesium acetate), pH 7.4, 25 °C; 50 nM RNC, 25 nM FMN; stalled on ribosome
T1 construct: gene nifF; fusion: triple StrepII tag, Smt3, flavodoxin, TEV site, linker, SecM; stalled on E. coli ribosome, made in vitro with PURExpress, Strep-Tactin purified; tags kept
T1 sequence (P00324 2-180 F45Y/C70A, one chain of several): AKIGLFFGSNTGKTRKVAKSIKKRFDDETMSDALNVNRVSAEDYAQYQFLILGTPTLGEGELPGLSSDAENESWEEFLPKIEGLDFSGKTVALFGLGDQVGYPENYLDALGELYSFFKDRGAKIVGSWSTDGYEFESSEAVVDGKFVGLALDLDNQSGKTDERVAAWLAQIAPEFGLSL

[2] = target: T2, apo-F44YP (released F44Y flavodoxin construct) (Azotobacter vinelandii, UniProt P00324, F45Y/C70A); conditions: 100 mM potassium PPi, 25 °C; refolded apo-F44YP 147 nM, 25 nM FMN
T2 construct: gene nifF; tags kept
T2 sequence (P00324 2-180 F45Y/C70A): as the sequence (P00324 2-180 F45Y/C70A, one chain of several) above

[3] = target: T3, flavodoxin (C69A apoflavodoxin; F44Y apoflavodoxin) (Azotobacter vinelandii, UniProt P00324, C70A); conditions: 10 or 100 mM potassium PPi, pH 6.0, 25 °C; 140 nM protein, 25 nM FMN
T3 construct: gene nifF; full-length isolated apoflavodoxin, 179 residues, expressed in E. coli TG2; FMN removed
T3 sequence (P00324 2-180 C70A): as the sequence (P00324 2-180 F45Y/C70A, one chain of several) above, with Y44F counted along it

With `Cc1cc2nc3c(=O)[nH]c(=O)nc-3n(C[C@H](O)[C@H](O)[C@H](O)COP(=O)(O)O)c2cc1C` [FMN] the “FMN fluorescence quenching on binding to apoprotein, time trace” value (“FMN fluorescence quenching on binding” below) [1] was “F44YRNC binds FMN rapidly at both salt concentrations”, the “FMN fluorescence quenching on binding” value [2] was “the FMN binding trace of this refolded apo-F44YP was measured in various buffers” and the “FMN fluorescence quenching on binding” value [3] was “time-dependent decrease of FMN fluorescence upon cofactor binding to C69A apoflavodoxin”.
